Source: PubChem BioAssay (NCI)
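96-well plates; 48 h exposure; 5 concentrations. Endpoints by linear interpolation between flanking doses. Not reached: highest tested concentration assigned. Definition used: TGI = concentration required for complete inhibition of growth.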

Key:
Assay in all cases: NCI anticancer screen, dose series, 48 h
[1] = tested on: OVCAR-8 ovarian
[2] = tested on: CCRF-CEM leukemia
[3] = tested on: DU-145 prostate
[4] = tested on: SR leukemia
[5] = tested on: 786-0 renal
[6] = tested on: KM12 colon
[7] = tested on: OVCAR-5 ovarian
[8] = tested on: MDA-N
[9] = tested on: LOX IMVI melanoma
[10] = tested on: SNB-75 CNS
[11] = tested on: RXF 393 renal
[12] = tested on: M14 melanoma
[13] = tested on: CAKI-1 renal
[14] = tested on: PC-3 prostate
[15] = tested on: NCI/ADR-RES ovarian
[16] = tested on: MDA-MB-435
[17] = tested on: MOLT-4 leukemia
[18] = tested on: NCI-H460 lung
[19] = tested on: EKVX NSCLC
[20] = tested on: UACC-62 melanoma
[21] = tested on: MCF7 breast
[22] = tested on: HCC-2998 colon
[23] = tested on: HOP-92 NSCLC
[24] = tested on: A498 renal
[25] = tested on: SK-MEL-2 melanoma
[26] = tested on: ACHN renal
[27] = tested on: IGROV1 ovarian
[28] = tested on: SK-MEL-28 melanoma
[29] = tested on: U251 CNS
[30] = tested on: NCI-H23 lung
[31] = tested on: SF-295 CNS
[32] = tested on: T-47D breast
[33] = tested on: HOP-62 NSCLC
[34] = tested on: UO-31 renal
[35] = tested on: BT-549 breast
[36] = tested on: SK-OV-3 ovarian
[37] = tested on: HL-60(TB) leukemia
[38] = tested on: OVCAR-3 ovarian
[39] = tested on: HCT-116 colon
[40] = tested on: OVCAR-4 ovarian
[41] = tested on: COLO 205 colon
[42] = tested on: TK-10 renal
[43] = tested on: A549 NSCLC
[44] = tested on: SN12C renal
[45] = tested on: SW-620 colon
[46] = tested on: K-562 leukemia
[47] = tested on: UACC-257 melanoma
[48] = tested on: SNB-19 CNS
[49] = tested on: HCT-15 colon
[50] = tested on: SK-MEL-5 melanoma
[51] = tested on: RPMI-8226 leukemia
[52] = tested on: NCI-H226 lung
[53] = tested on: MDA-MB-231 breast
[54] = tested on: HT29 colon
[55] = tested on: SF-539 CNS
[56] = tested on: SF-268 CNS
[57] = tested on: HS 578T breast
[58] = tested on: NCI-H522 lung
[59] = tested on: MALME-3M melanoma

With `CCOC(=O)C1=c2[nH]c3cccc4cccc(c43)n2C=C(C(C)=O)C1CC(C)=O` (stereo not given) the TGI [1] was > 100 µM, the TGI [2] was > 100 µM and the TGI [3] was > 100 µM. For the same compound, the TGI [4] was > 100 µM, the TGI [5] was > 100 µM and the TGI [6] was > 100 µM. For the same compound, the TGI [7] was > 100 µM, the TGI [8] was > 100 µM and the TGI [9] was > 100 µM. For the same compound, the TGI [10] was > 100 µM, the TGI [11] was > 100 µM and the TGI [12] was > 100 µM. For the same compound, the TGI [13] was > 100 µM, the TGI [14] was > 100 µM and the TGI [15] was > 100 µM. The TGI [16] was > 100 µM, the TGI [17] was > 100 µM and the TGI [18] was > 100 µM. For the same compound, the TGI [19] was > 100 µM, the TGI [20] was > 100 µM and the TGI [21] was > 100 µM. For the same compound, the TGI [22] was > 100 µM, the TGI [23] was > 100 µM and the TGI [24] was > 100 µM. For the same compound, the TGI [25] was > 100 µM, the TGI [26] was > 100 µM and the TGI [27] was > 100 µM. For the same compound, the TGI [28] was > 100 µM, the TGI [29] was > 100 µM and the TGI [30] was > 100 µM. The TGI [31] was > 100 µM, the TGI [32] was > 100 µM and the TGI [33] was > 100 µM. For the same compound, the TGI [34] was > 100 µM, the TGI [35] was > 100 µM and the TGI [36] was > 100 µM. The TGI [37] was 59.2 µM, the TGI [38] was > 100 µM and the TGI [39] was > 100 µM. The TGI [40] was > 100 µM, the TGI [41] was > 100 µM and the TGI [42] was > 100 µM. The TGI [43] was > 100 µM, the TGI [44] was > 100 µM and the TGI [45] was > 100 µM. For the same compound, the TGI [46] was > 100 µM, the TGI [47] was > 100 µM and the TGI [48] was > 100 µM. For the same compound, the TGI [49] was > 100 µM, the TGI [50] was > 100 µM and the TGI [51] was > 100 µM.
`COc1cccc(N2C(=O)CSC2c2cc(OC)c(OC)c(OC)c2)c1` (stereo not given) was tested, and the TGI [1] was > 100 µM, the TGI [2] was 65 µM and the TGI [3] was 39.7 µM. For the same compound, the TGI [4] was > 100 µM, the TGI [5] was > 100 µM and the TGI [6] was > 100 µM. The TGI [7] was > 100 µM, the TGI [8] was 37.1 µM and the TGI [9] was > 100 µM. The TGI [12] was > 100 µM, the TGI [13] was > 100 µM and the TGI [14] was > 100 µM. The TGI [15] was 91.4 µM, the TGI [16] was 17.6 µM and the TGI [17] was > 100 µM. For the same compound, the TGI [18] was > 100 µM, the TGI [19] was > 100 µM and the TGI [20] was > 100 µM. For the same compound, the TGI [21] was > 100 µM, the TGI [22] was 85.2 µM and the TGI [23] was > 100 µM. The TGI [52] was 87.2 µM, the TGI [53] was > 100 µM and the TGI [24] was > 100 µM. For the same compound, the TGI [25] was > 100 µM, the TGI [26] was > 100 µM and the TGI [54] was > 100 µM. For the same compound, the TGI [27] was > 100 µM, the TGI [28] was > 100 µM and the TGI [29] was > 100 µM. The TGI [30] was > 100 µM, the TGI [31] was 97.8 µM and the TGI [34] was > 100 µM. The TGI [55] was > 100 µM, the TGI [35] was 64.6 µM and the TGI [56] was > 100 µM. For the same compound, the TGI [36] was > 100 µM, the TGI [37] was 98 µM and the TGI [57] was > 100 µM. The TGI [38] was 66.2 µM, the TGI [39] was > 100 µM and the TGI [40] was > 100 µM. The TGI [41] was 76.8 µM, the TGI [42] was > 100 µM and the TGI [43] was > 100 µM. For the same compound, the TGI [44] was > 100 µM, the TGI [45] was > 100 µM and the TGI [46] was > 100 µM. The TGI [47] was > 100 µM, the TGI [48] was 63 µM and the TGI [49] was > 100 µM. For the same compound, the TGI [50] was > 100 µM, the TGI [58] was 90.4 µM and the TGI [51] was > 100 µM.
For `O=C(NCCO)Nc1c(C(F)(F)F)cc(-c2ccccc2)[nH]c1=O`, the TGI [1] was > 100 µM, the TGI [2] was > 100 µM and the TGI [3] was > 100 µM. For the same compound, the TGI [5] was > 100 µM, the TGI [6] was > 100 µM and the TGI [7] was > 100 µM. The TGI [8] was > 100 µM, the TGI [9] was > 100 µM and the TGI [11] was > 100 µM. For the same compound, the TGI [12] was > 100 µM, the TGI [13] was > 100 µM and the TGI [14] was > 100 µM. The TGI [15] was > 100 µM, the TGI [16] was > 100 µM and the TGI [17] was > 100 µM. The TGI [18] was > 100 µM, the TGI [19] was > 100 µM and the TGI [20] was > 100 µM. For the same compound, the TGI [21] was > 100 µM, the TGI [22] was > 100 µM and the TGI [23] was > 100 µM. The TGI [52] was > 100 µM, the TGI [53] was > 100 µM and the TGI [24] was > 100 µM. For the same compound, the TGI [25] was > 100 µM, the TGI [26] was > 100 µM and the TGI [54] was > 100 µM. For the same compound, the TGI [27] was > 100 µM, the TGI [28] was > 100 µM and the TGI [29] was > 100 µM. The TGI [30] was > 100 µM, the TGI [31] was > 100 µM and the TGI [32] was > 100 µM. The TGI [33] was > 100 µM, the TGI [34] was > 100 µM and the TGI [35] was > 100 µM. For the same compound, the TGI [36] was > 100 µM, the TGI [37] was > 100 µM and the TGI [38] was > 100 µM. The TGI [39] was > 100 µM, the TGI [40] was > 100 µM and the TGI [41] was > 100 µM. For the same compound, the TGI [42] was > 100 µM, the TGI [43] was > 100 µM and the TGI [44] was > 100 µM. The TGI [45] was > 100 µM, the TGI [46] was > 100 µM and the TGI [47] was > 100 µM. The TGI [48] was > 100 µM, the TGI [49] was > 100 µM and the TGI [50] was > 100 µM. For the same compound, the TGI [51] was > 100 µM.
`FC(F)(Sc1ccccc1)c1nc2ccccc2o1` was tested, and the TGI [1] was > 100 µM, the TGI [2] was 55.5 µM and the TGI [3] was > 100 µM. For the same compound, the TGI [4] was 73.7 µM, the TGI [5] was > 100 µM and the TGI [6] was > 100 µM. The TGI [7] was > 100 µM, the TGI [8] was > 100 µM and the TGI [11] was > 100 µM. For the same compound, the TGI [12] was > 100 µM, the TGI [13] was > 100 µM and the TGI [14] was > 100 µM. For the same compound, the TGI [15] was > 100 µM, the TGI [16] was > 100 µM and the TGI [17] was 52.2 µM. The TGI [18] was > 100 µM, the TGI [20] was > 100 µM and the TGI [59] was > 100 µM. For the same compound, the TGI [21] was > 100 µM, the TGI [22] was > 100 µM and the TGI [23] was > 100 µM. The TGI [52] was > 100 µM, the TGI [53] was > 100 µM and the TGI [24] was > 100 µM. The TGI [25] was > 100 µM, the TGI [26] was > 100 µM and the TGI [54] was > 100 µM. For the same compound, the TGI [27] was > 100 µM, the TGI [28] was > 100 µM and the TGI [29] was > 100 µM. For the same compound, the TGI [30] was > 100 µM, the TGI [31] was > 100 µM and the TGI [32] was > 100 µM. The TGI [33] was > 100 µM, the TGI [34] was > 100 µM and the TGI [55] was > 100 µM. For the same compound, the TGI [35] was > 100 µM, the TGI [56] was > 100 µM and the TGI [36] was 69.4 µM. The TGI [38] was > 100 µM, the TGI [39] was > 100 µM and the TGI [40] was > 100 µM. The TGI [41] was > 100 µM, the TGI [42] was > 100 µM and the TGI [43] was > 100 µM. The TGI [44] was > 100 µM, the TGI [45] was > 100 µM and the TGI [46] was > 100 µM. The TGI [47] was > 100 µM, the TGI [49] was > 100 µM and the TGI [50] was > 100 µM. For the same compound, the TGI [58] was > 100 µM and the TGI [51] was > 100 µM.
